Results from ChEMBL document CHEMBL1201862, “PubChem BioAssay data set” (2004).
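Cells were grown in 96-well plates and exposed to each compound for 48 hours at five concentrations; endpoints were interpolated linearly between bracketing concentrations, or set to the highest concentration if not reached. Here, GI50 denotes the concentration required for 50% inhibition of growth.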 Activity calls are given as the source filed them. Cut-off read from the data, not from the text of the source: active = GI50 up to about 1.1 µM and inactive = higher.

Tests used:
Test in all cases: DTP human tumour cell line panel, 48 h
[1] = test system: K562
[2] = test system: OVCAR-4
[3] = test system: HCC 2998
[4] = test system: HOP-62
[5] = test system: NCI-H23
[6] = test system: SF-539
[7] = test system: RXF 393
[8] = test system: HOP-92
[9] = test system: UACC-62
[10] = test system: OVCAR-8
[11] = test system: BT-549
[12] = test system: 786-0
[13] = test system: COLO 205
[14] = test system: NCI/ADR-RES
[15] = test system: DU-145
[16] = test system: UACC-257
[17] = test system: SF-295
[18] = test system: OVCAR-3
[19] = test system: LOX IMVI
[20] = test system: SNB-75
[21] = test system: Hs-578T
[22] = test system: NCI-H460
[23] = test system: MCF7
[24] = test system: RPMI-8226
[25] = test system: U-251
[26] = test system: SF-268
[27] = test system: Malme-3M
[28] = test system: SN12C
[29] = test system: HT-29
[30] = test system: SK-MEL-2
[31] = test system: SK-MEL-5
[32] = test system: SK-OV-3
[33] = test system: SK-MEL-28
[34] = test system: UO-31
[35] = test system: MOLT-4
[36] = test system: MDA-MB-435
[37] = test system: OVCAR-5
[38] = test system: MDA-N
[39] = test system: M14
[40] = test system: NCI-H226
[41] = test system: T47D
[42] = test system: EKVX
[43] = test system: CAKI-1
[44] = test system: PC-3
[45] = test system: SW-620
[46] = test system: A549
[47] = test system: HCT-116
[48] = test system: CCRF-CEM
[49] = test system: HCT-15
[50] = test system: SNB-19
[51] = test system: KM12
[52] = test system: IGROV-1
[53] = test system: MDA-MB-231
[54] = test system: HL-60
[55] = test system: A498
[56] = test system: TK-10
[57] = test system: ACHN
[58] = test system: SR
[59] = test system: NCI-H522

CCCc1cc(=O)oc2c3c(c4c(c12)OC(C)(C)CC4)O[C@@H](C)[C@H](C)[C@H]3O was tested, and the GI50 [1] was 2.79 µM (inactive), the GI50 [2] was 10.1 µM (inactive) and the GI50 [3] was 13.6 µM (inactive). For the same compound, the GI50 [4] was 14.9 µM (inactive), the GI50 [5] was 12.2 µM (inactive) and the GI50 [6] was 17.6 µM (inactive). The GI50 [7] was 11.3 µM (inactive), the GI50 [8] was 13.6 µM (inactive) and the GI50 [9] was 9.02 µM (inactive). For the same compound, the GI50 [10] was 13.3 µM (inactive), the GI50 [11] was 5.06 µM (inactive) and the GI50 [12] was 5.37 µM (inactive). The GI50 [13] was 12.6 µM (inactive), the GI50 [14] was 9.4 µM (inactive) and the GI50 [15] was 17.8 µM (inactive). For the same compound, the GI50 [16] was 4.94 µM (inactive), the GI50 [17] was 13.5 µM (inactive) and the GI50 [18] was 15.7 µM (inactive). For the same compound, the GI50 [19] was 15.4 µM (inactive), the GI50 [20] was 10.3 µM (inactive) and the GI50 [21] was 15.8 µM (inactive). For the same compound, the GI50 [22] was 8.49 µM (inactive), the GI50 [23] was 12.6 µM (inactive) and the GI50 [24] was 4.35 µM (inactive). The GI50 [25] was 11.8 µM (inactive), the GI50 [26] was 15.1 µM (inactive) and the GI50 [27] was 14.4 µM (inactive). The GI50 [28] was 4.22 µM (inactive), the GI50 [29] was 8.3 µM (inactive) and the GI50 [30] was 14.6 µM (inactive). For the same compound, the GI50 [31] was 6.7 µM (inactive), the GI50 [32] was 17.6 µM (inactive) and the GI50 [33] was 15.6 µM (inactive). For the same compound, the GI50 [34] was 6.12 µM (inactive), the GI50 [35] was 3.85 µM (inactive) and the GI50 [36] was 5.94 µM (inactive). The GI50 [37] was 12.7 µM (inactive), the GI50 [38] was 2.69 µM (inactive) and the GI50 [39] was 11.8 µM (inactive). For the same compound, the GI50 [40] was 15.2 µM (inactive), the GI50 [41] was 6.58 µM (inactive) and the GI50 [42] was 12.2 µM (inactive). For the same compound, the GI50 [43] was 35.1 µM (inactive), the GI50 [44] was 4.23 µM (inactive) and the GI50 [45] was 15 µM (inactive). The GI50 [46] was 10.8 µM (inactive), the GI50 [47] was 8.89 µM (inactive) and the GI50 [48] was 3.98 µM (inactive). The GI50 [49] was 11.2 µM, the GI50 [50] was 14 µM (inactive) and the GI50 [51] was 12.4 µM (inactive). The GI50 [52] was 16.1 µM (inactive) and the GI50 [53] was 2.16 µM (inactive).
COc1ccc(-c2c(C#N)c(O)n(C3OC(CO)C(O)C(O)C3O)c(=S)c2C#N)cc1 (configuration not stated) was tested, and the GI50 [1] was > 100 µM (inactive), the GI50 [3] was > 100 µM (inactive) and the GI50 [4] was > 100 µM (inactive). The GI50 [5] was > 100 µM (inactive), the GI50 [54] was > 100 µM (inactive) and the GI50 [6] was > 100 µM (inactive). For the same compound, the GI50 [55] was > 100 µM (inactive), the GI50 [7] was > 100 µM (inactive) and the GI50 [9] was > 100 µM (inactive). The GI50 [56] was > 100 µM (inactive), the GI50 [10] was > 100 µM (inactive) and the GI50 [11] was > 100 µM (inactive). For the same compound, the GI50 [12] was > 100 µM (inactive), the GI50 [14] was > 100 µM (inactive) and the GI50 [15] was > 100 µM (inactive). The GI50 [16] was > 100 µM (inactive), the GI50 [17] was > 100 µM (inactive) and the GI50 [18] was > 100 µM (inactive). For the same compound, the GI50 [19] was > 100 µM (inactive), the GI50 [20] was > 100 µM (inactive) and the GI50 [22] was > 100 µM (inactive). For the same compound, the GI50 [23] was > 100 µM (inactive), the GI50 [24] was > 100 µM (inactive) and the GI50 [57] was > 100 µM (inactive). For the same compound, the GI50 [26] was > 100 µM (inactive), the GI50 [27] was > 100 µM (inactive) and the GI50 [28] was > 100 µM (inactive). The GI50 [29] was > 100 µM (inactive), the GI50 [30] was > 100 µM (inactive) and the GI50 [31] was > 100 µM (inactive). The GI50 [32] was > 100 µM (inactive), the GI50 [33] was > 100 µM (inactive) and the GI50 [34] was > 100 µM (inactive). The GI50 [35] was > 100 µM (inactive), the GI50 [36] was > 100 µM (inactive) and the GI50 [37] was > 100 µM (inactive). For the same compound, the GI50 [38] was > 100 µM (inactive), the GI50 [58] was > 100 µM (inactive) and the GI50 [39] was > 100 µM (inactive). The GI50 [40] was > 100 µM (inactive), the GI50 [59] was > 100 µM (inactive) and the GI50 [41] was > 100 µM (inactive). For the same compound, the GI50 [43] was > 100 µM (inactive), the GI50 [44] was > 100 µM (inactive) and the GI50 [45] was > 100 µM (inactive). The GI50 [46] was > 100 µM (inactive), the GI50 [48] was > 100 µM (inactive) and the GI50 [49] was > 100 µM. The GI50 [50] was > 100 µM (inactive), the GI50 [51] was > 100 µM (inactive) and the GI50 [52] was > 100 µM (inactive). For the same compound, the GI50 [53] was > 100 µM (inactive).
In the case of Nc1c([N+](=O)[O-])cc2c3c(cccc13)CC2, the GI50 [1] is reported as > 100 µM (inactive), the GI50 [2] is reported as 47.8 µM (inactive) and the GI50 [3] is reported as > 100 µM (inactive). The GI50 [4] was 74.6 µM (inactive), the GI50 [5] was 55 µM (inactive) and the GI50 [54] was 74.6 µM (inactive). The GI50 [6] was 31.5 µM (inactive), the GI50 [55] was 33.7 µM (inactive) and the GI50 [7] was 23.1 µM (inactive). For the same compound, the GI50 [8] was > 100 µM (inactive), the GI50 [9] was 85.1 µM (inactive) and the GI50 [56] was 42.8 µM (inactive). For the same compound, the GI50 [10] was 71.3 µM (inactive), the GI50 [11] was 74.6 µM (inactive) and the GI50 [12] was 57.4 µM (inactive). The GI50 [13] was 64.1 µM (inactive), the GI50 [14] was 40.8 µM (inactive) and the GI50 [15] was 46 µM (inactive). For the same compound, the GI50 [16] was > 100 µM (inactive), the GI50 [17] was 91.6 µM (inactive) and the GI50 [18] was > 100 µM (inactive). The GI50 [19] was 65.2 µM (inactive), the GI50 [20] was > 100 µM (inactive) and the GI50 [21] was > 100 µM (inactive). The GI50 [22] was 54.1 µM (inactive), the GI50 [24] was 55.7 µM (inactive) and the GI50 [57] was > 100 µM (inactive). For the same compound, the GI50 [25] was 91 µM (inactive), the GI50 [26] was 83.6 µM (inactive) and the GI50 [28] was 62.8 µM (inactive). The GI50 [29] was 98.9 µM (inactive), the GI50 [30] was 51.3 µM (inactive) and the GI50 [31] was 53.2 µM (inactive). The GI50 [32] was 51.2 µM (inactive), the GI50 [33] was > 100 µM (inactive) and the GI50 [34] was 42.5 µM (inactive). For the same compound, the GI50 [35] was 23.6 µM (inactive), the GI50 [36] was 62.5 µM (inactive) and the GI50 [37] was > 100 µM (inactive). For the same compound, the GI50 [38] was > 100 µM (inactive), the GI50 [58] was 25.4 µM (inactive) and the GI50 [39] was > 100 µM (inactive). The GI50 [40] was > 100 µM (inactive), the GI50 [59] was 93.8 µM (inactive) and the GI50 [41] was 30.1 µM (inactive). The GI50 [42] was 26.7 µM (inactive), the GI50 [43] was > 100 µM (inactive) and the GI50 [44] was > 100 µM (inactive). For the same compound, the GI50 [45] was 82.2 µM (inactive), the GI50 [46] was 78.5 µM (inactive) and the GI50 [47] was 39.1 µM (inactive). The GI50 [48] was 90.6 µM (inactive), the GI50 [49] was 65.9 µM and the GI50 [50] was 86.3 µM (inactive). For the same compound, the GI50 [51] was > 100 µM (inactive), the GI50 [52] was > 100 µM (inactive) and the GI50 [53] was 38.9 µM (inactive).
